Experimental data: ChEMBL document CHEMBL1132811, “Bisquaternary caracurine V derivatives as allosteric modulators of ligand binding to M2 acetylcholine receptors” (Bioorg Med Chem Lett, 2000)

Target: T1, Muscarinic acetylcholine receptor M2 (Sus scrofa, UniProt P06199)
T1 sequence (P06199 whole entry): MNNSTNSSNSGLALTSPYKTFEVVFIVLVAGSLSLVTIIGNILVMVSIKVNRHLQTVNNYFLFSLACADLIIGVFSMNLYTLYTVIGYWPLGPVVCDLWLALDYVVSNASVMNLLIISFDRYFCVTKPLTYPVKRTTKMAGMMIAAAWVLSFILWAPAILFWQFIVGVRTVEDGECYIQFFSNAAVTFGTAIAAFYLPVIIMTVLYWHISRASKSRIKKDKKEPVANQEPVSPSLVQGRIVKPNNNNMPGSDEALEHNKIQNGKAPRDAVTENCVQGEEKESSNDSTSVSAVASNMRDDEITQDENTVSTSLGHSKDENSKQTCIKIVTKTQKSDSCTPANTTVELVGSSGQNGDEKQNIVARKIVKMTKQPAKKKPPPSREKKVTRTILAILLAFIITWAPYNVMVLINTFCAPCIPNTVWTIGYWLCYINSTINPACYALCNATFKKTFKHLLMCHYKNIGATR
Experiment: Allosteric inhibition of [3H]NMS (N-methyl-scopolamine) dissociation from porcine cardiac Muscarinic acetylcholine receptor M2

Compound | EC50 [nM]
COc1ccc(C[N+]23CCC45c6ccccc6N6[C@@H]7OCC=C8C[N+]9(Cc%10ccc(OC)c(OC)c%10)CCC%10%11c%12ccccc%12N([C@@H]%12OCC=C(C2)[C@H](C[C@@H]43)[C@@H]%12[C@H]65)[C@H]%10[C@H]7[C@H]8C[C@@H]%119)cc1OC (some centres not stated) | 342
C1=C2C[N@+]3(Cc4ccccc4)CC[C@]45c6ccccc6N6[C@@H]7OCC=C8C[N@+]9(Cc%10ccccc%10)CC[C@]%10%11c%12ccccc%12N([C@H](OC1)[C@@H]([C@H]64)[C@H]2C[C@@H]53)[C@H]%10[C@H]7[C@H]8C[C@@H]%119 | 69
C1=C2CN3CCC45c6ccccc6N6[C@@H]7OCC=C8CN9CCC%10%11c%12ccccc%12N([C@H](OC1)[C@@H]([C@H]64)[C@H]2C[C@H]35)[C@H]%10[C@H]7[C@H]8C[C@H]9%11 (some centres not stated) | 1190
Brc1ccc(C[N+]23CCC45c6ccccc6N6[C@@H]7OCC=C8C[N+]9(Cc%10ccc(Br)cc%10)CCC%10%11c%12ccccc%12N([C@@H]%12OCC=C(C2)[C@H](C[C@@H]43)[C@@H]%12[C@H]65)[C@H]%10[C@H]7[C@H]8C[C@@H]%119)cc1 (some centres not stated) | 507
C[N+]12CCC34c5ccccc5N5[C@@H]6OCC=C7C[N+]8(C)CCC9%10c%11ccccc%11N([C@@H]%11OCC=C(C1)[C@H](C[C@@H]32)[C@@H]%11[C@H]54)[C@H]9[C@H]6[C@H]7C[C@@H]%108 (some centres not stated) | 8
C=CC[N+]12CCC34c5ccccc5N5[C@@H]6OCC=C7C[N+]8(CC=C)CCC9%10c%11ccccc%11N([C@@H]%11OCC=C(C1)[C@H](C[C@@H]32)[C@@H]%11[C@H]54)[C@H]9[C@H]6[C@H]7C[C@@H]%108 (some centres not stated) | 3
FC(F)(F)c1ccc(C[N+]23CCC45c6ccccc6N6[C@@H]7OCC=C8C[N+]9(Cc%10ccc(C(F)(F)F)cc%10)CCC%10%11c%12ccccc%12N([C@@H]%12OCC=C(C2)[C@H](C[C@@H]43)[C@@H]%12[C@H]65)[C@H]%10[C@H]7[C@H]8C[C@@H]%119)cc1 (some centres not stated) | 1750
O=[N+]([O-])c1ccc(C[N+]23CCC45c6ccccc6N6[C@@H]7OCC=C8C[N+]9(Cc%10ccc([N+](=O)[O-])cc%10)CCC%10%11c%12ccccc%12N([C@@H]%12OCC=C(C2)[C@H](C[C@@H]43)[C@@H]%12[C@H]65)[C@H]%10[C@H]7[C@H]8C[C@@H]%119)cc1 (some centres not stated) | 315
C#CC[N+]12CCC34c5ccccc5N5[C@@H]6OCC=C7C[N+]8(CC#C)CCC9%10c%11ccccc%11N([C@@H]%11OCC=C(C1)[C@H](C[C@@H]32)[C@@H]%11[C@H]54)[C@H]9[C@H]6[C@H]7C[C@@H]%108 (some centres not stated) | 4
C1=C2C[N+]3(Cc4ccc5ccccc5c4)CCC45c6ccccc6N6[C@@H]7OCC=C8C[N+]9(Cc%10ccc%11ccccc%11c%10)CCC%10%11c%12ccccc%12N([C@H](OC1)[C@@H]([C@H]64)[C@H]2C[C@@H]53)[C@H]%10[C@H]7[C@H]8C[C@@H]%119 (some centres not stated) | 1560
CCC[N+]12CCC34c5ccccc5N5[C@@H]6OCC=C7C[N+]8(CCC)CCC9%10c%11ccccc%11N([C@@H]%11OCC=C(C1)[C@H](C[C@@H]32)[C@@H]%11[C@H]54)[C@H]9[C@H]6[C@H]7C[C@@H]%108 (some centres not stated) | 30
O=C1c2ccccc2C(=O)N1CCC[N+]12CCC34c5ccccc5N5[C@@H]6OCC=C7C[N+]8(CCCN9C(=O)c%10ccccc%10C9=O)CCC9%10c%11ccccc%11N([C@@H]%11OCC=C(C1)[C@H](C[C@@H]32)[C@@H]%11[C@H]54)[C@H]9[C@H]6[C@H]7C[C@@H]%108 (some centres not stated) | 376
